# According to US9926277B2, “Pyridone compounds, pharmaceutical compositions thereof, and their therapeutic use for treating proliferative diseases” (BioTheryX, Inc., priority 2015, dated 2018):
# System: MDA-MB-231 cells
# Assay: Viability of MDA-MB-231 cancer cells (CELLTITER, Example B5)
# Type: cell-based
# Settings: Homo sapiens, 72 hours incubation, read-out: Cell Viability (%); for viability at 0.005 µM: Conc. 5 nM; for viability at 0.01 µM: Conc. 10 nM; for viability at 0.02 µM: Conc. 20 nM
# Procedure: Compounds A1 and A3 to A6 were tested for their ability to reduce the viability of MDA-MB-231 cells, along with ciclopirox (CPX). MDA-MB-231 is a metastatic human breast cancer cell line. […] Seventy-two hours after incubation, cell viability was measured using CELLTITER® from Promega.
SMILES,viability at 0.005 µM,viability at 0.01 µM,viability at 0.02 µM,viability at 0.003 µM (Conc. 3 nM)
"Cc1cc(C2CCCCC2)n(OS(=O)(=O)c2c(C(C)C)cc(C(C)C)cc2C(C)C)c(=O)c1 [Compound A5, 6-Cyclohexyl-4-methyl-2-oxopyridin-1(2H)-yl 2,4,6-triisopropylbenzenesulfonate]",62.9 ± 9.6%,50.6 ± 6.2%,40.6 ± 7.1%,–
"Cc1cc(C2CCCCC2)n(OS(=O)(=O)c2ccc(C(C)C)cc2)c(=O)c1 [Compound A3, 6-Cyclohexyl-4-methyl-2-oxopyridin-1(2H)-yl 4-isopropylbenzenesulfonate]",48.3 ± 4.9%,34.4 ± 6.9%,28.4 ± 1.3%,–
"CCCS(=O)(=O)On1c(C2CCCCC2)cc(C)cc1=O [Compound A4, 6-Cyclohexyl-4-methyl-2-oxopyridin-1(2H)-yl propane-1-sulfonate]",40.5 ± 11.4%,32.3 ± 0.6%,29.2 ± 1.7%,–
"Cc1cc(C2CCCCC2)n(OS(=O)(=O)c2cccs2)c(=O)c1 [Compound A6, 6-Cyclohexyl-4-methyl-2-oxopyridin-1(2H)-yl thiophene-2-sulfonate]",26.7 ± 4%,31.4 ± 8.4%,22.1 ± 3.6%,–
"Cc1cc(C2CCCCC2)n(OS(=O)(=O)c2ccccc2)c(=O)c1 [Compound A1, 6-cyclohexyl-4-methyl-2-oxopyridin-1(2H)-yl benzenesulfonate]",46.8 ± 8%,31.1 ± 5.4%,22.1 ± 4.9%,–
"Cc1cc(C2CCCCC2)n(O)c(=O)c1 [CPX, ciclopirox, reference compound]",43.4 ± 2.2%,46.3 ± 11.1%,20.9 ± 1.5%,60.3 ± 2%
